# In ChEMBL document CHEMBL5291721, “A preclinical secondary pharmacology resource illuminates target-adverse drug reaction associations of marketed drugs” (Nat Commun, 2023):
# *1 amine or outer side, *2 acyl side, *3 side chain or, on linkers, in order; H or OH if unused. Where a SMILES comes first, the peptide text is derived from it. Bridges are numbered along the chain shown (N, C = ends). [ ]: non-standard residue; d: D form. The star is where a group is joined. hTyr(3S-OH,4S-OH,3'-OSO3H) = N[C@H](C(=O)O)[C@H](O)[C@@H](O)c1ccc(O)c(OS(=O)(=O)O)c1; Orn(4R-OH,5R-OH) = O=C([C@H](C[C@@H](O)[C@@H](O)N[*:3])N[*:1])[*:2]; Pro(3S-OH,4S-Me) = C[C@H]1CN[C@H](C(=O)O)[C@H]1O; X1 = CCCCCOc1ccc(-c2cc(-c3ccc(C(=O)*)cc3)no2)cc1; Gln(3R-OH) = NC(=O)C[C@@H](O)[C@H](N)C(=O)O; Hyp = O=C(O)[C@@H]1C[C@@H](O)CN1
# Columns and labels:
# Mu-type opioid receptor = Mu-type opioid receptor (Homo sapiens, UniProt P35372)
# Histamine H2 receptor = Histamine H2 receptor (Homo sapiens, UniProt P25021); assay type: functional, cell-based
# [1] = target: Growth hormone secretagogue receptor type 1 (Homo sapiens, UniProt Q92847)
# [2] = target: Kappa-type opioid receptor (Homo sapiens, UniProt P41145)
# [3] = target: T1, Type-1 angiotensin II receptor (Homo sapiens, UniProt P30556)
# T1 sequence (P30556 whole entry): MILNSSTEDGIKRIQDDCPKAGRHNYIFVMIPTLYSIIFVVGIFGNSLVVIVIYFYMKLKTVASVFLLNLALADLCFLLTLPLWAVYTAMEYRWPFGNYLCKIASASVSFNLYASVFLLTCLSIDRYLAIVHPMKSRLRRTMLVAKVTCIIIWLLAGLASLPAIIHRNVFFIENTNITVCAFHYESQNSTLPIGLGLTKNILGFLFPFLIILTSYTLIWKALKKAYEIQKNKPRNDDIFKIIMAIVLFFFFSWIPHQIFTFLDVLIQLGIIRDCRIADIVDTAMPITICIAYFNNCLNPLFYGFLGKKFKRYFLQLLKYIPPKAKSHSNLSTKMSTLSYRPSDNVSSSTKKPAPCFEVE
# Adenosine receptor A3 = target: T2, Adenosine receptor A3 (Homo sapiens, UniProt P0DMS8)
# T2 sequence (P0DMS8 whole entry): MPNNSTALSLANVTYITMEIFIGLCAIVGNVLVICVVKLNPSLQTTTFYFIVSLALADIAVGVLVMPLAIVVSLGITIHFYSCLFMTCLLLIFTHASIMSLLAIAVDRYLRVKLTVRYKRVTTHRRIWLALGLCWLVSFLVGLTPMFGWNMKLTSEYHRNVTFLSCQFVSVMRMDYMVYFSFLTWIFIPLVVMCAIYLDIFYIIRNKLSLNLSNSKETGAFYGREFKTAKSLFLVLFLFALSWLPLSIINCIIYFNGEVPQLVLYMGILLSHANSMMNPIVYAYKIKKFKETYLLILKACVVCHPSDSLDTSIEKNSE
# [4] = target: T3, 5-hydroxytryptamine receptor 1A (Homo sapiens, UniProt P08908); assay type: functional, cell-based
# T3 sequence (P08908 whole entry): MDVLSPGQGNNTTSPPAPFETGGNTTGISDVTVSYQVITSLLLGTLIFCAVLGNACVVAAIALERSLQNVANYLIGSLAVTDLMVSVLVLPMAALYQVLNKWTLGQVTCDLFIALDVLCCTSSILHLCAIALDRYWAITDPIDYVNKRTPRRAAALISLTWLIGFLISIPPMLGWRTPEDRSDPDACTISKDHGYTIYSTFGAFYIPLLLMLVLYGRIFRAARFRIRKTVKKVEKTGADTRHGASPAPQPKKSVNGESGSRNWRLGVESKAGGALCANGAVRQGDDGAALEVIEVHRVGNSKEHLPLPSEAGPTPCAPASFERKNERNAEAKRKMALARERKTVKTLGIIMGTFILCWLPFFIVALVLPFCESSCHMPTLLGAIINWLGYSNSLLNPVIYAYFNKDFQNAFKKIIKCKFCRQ
# [5] = target: T4, Muscarinic acetylcholine receptor M2 (Homo sapiens, UniProt P08172); assay type: functional, cell-based
# T4 sequence (P08172 whole entry): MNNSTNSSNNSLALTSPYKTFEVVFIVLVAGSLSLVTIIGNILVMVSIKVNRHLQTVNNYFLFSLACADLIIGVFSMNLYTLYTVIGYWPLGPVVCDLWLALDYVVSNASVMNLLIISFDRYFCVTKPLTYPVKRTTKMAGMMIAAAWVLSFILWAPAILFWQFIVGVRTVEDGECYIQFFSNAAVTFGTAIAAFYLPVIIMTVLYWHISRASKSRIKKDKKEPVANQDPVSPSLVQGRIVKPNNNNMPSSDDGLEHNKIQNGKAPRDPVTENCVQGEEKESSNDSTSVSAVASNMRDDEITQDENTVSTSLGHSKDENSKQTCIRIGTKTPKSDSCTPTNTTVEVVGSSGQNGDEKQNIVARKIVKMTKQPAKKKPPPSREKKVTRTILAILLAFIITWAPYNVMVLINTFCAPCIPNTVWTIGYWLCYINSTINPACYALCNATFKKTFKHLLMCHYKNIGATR
# Melanocortin receptor 3 = Melanocortin receptor 3 (Homo sapiens, UniProt P41968)
# [6] = target: T5, Alpha-1A adrenergic receptor (Homo sapiens, UniProt P35348); assay type: functional, cell-based
# T5 sequence (P35348 whole entry): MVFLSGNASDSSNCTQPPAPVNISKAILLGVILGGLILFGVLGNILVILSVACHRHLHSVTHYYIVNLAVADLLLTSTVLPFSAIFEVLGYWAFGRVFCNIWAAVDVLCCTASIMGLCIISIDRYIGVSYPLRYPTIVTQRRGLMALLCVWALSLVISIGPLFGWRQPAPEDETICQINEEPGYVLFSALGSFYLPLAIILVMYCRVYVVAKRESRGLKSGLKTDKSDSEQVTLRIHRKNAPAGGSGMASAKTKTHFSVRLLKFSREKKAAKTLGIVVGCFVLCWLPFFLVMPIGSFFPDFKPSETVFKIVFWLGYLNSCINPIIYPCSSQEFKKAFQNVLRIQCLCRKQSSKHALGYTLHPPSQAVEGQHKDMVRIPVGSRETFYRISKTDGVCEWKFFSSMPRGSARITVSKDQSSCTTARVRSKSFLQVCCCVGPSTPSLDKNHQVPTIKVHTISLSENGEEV
# [7] = target: T6, Muscarinic acetylcholine receptor M1 (Homo sapiens, UniProt P11229); assay type: functional, cell-based
# T6 sequence (P11229 whole entry): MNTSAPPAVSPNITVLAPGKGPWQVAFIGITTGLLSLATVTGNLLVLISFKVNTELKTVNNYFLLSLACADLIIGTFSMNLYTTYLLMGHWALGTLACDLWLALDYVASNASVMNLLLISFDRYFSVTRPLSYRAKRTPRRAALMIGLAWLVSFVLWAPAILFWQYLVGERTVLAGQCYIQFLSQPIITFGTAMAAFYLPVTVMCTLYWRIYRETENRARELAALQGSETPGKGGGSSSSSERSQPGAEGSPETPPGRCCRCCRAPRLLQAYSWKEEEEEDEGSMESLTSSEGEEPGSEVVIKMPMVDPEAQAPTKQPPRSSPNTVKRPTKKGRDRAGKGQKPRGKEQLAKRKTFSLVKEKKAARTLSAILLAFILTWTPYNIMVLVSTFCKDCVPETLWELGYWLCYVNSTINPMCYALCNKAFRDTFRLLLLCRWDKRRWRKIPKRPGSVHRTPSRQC
# [8] = target: T6, Muscarinic acetylcholine receptor M1; assay type: functional
# Note: assay procedure not described here.
# Sequence of Kappa-type opioid receptor (P41145 whole entry): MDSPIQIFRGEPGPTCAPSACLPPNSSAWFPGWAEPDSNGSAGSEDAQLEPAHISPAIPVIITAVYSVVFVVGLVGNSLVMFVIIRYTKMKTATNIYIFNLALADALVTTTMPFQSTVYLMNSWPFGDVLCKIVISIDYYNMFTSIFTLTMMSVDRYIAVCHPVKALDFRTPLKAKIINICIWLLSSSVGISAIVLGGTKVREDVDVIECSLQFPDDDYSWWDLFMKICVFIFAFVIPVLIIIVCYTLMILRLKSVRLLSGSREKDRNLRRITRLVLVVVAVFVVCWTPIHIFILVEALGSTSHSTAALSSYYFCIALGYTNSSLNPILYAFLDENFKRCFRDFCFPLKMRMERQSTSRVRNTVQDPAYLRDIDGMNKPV
# Sequence of Growth hormone secretagogue receptor type 1 (Q92847 whole entry): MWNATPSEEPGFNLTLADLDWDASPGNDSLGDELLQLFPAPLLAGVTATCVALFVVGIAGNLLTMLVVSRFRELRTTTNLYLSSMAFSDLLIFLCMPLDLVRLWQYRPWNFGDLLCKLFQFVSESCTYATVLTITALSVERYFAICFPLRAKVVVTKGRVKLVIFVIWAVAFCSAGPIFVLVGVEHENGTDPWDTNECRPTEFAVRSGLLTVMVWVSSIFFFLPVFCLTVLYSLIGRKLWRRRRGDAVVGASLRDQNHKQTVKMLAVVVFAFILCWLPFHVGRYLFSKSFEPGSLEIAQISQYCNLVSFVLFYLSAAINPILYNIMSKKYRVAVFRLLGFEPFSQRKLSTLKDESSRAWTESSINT
# Sequence of Histamine H2 receptor (P25021 whole entry): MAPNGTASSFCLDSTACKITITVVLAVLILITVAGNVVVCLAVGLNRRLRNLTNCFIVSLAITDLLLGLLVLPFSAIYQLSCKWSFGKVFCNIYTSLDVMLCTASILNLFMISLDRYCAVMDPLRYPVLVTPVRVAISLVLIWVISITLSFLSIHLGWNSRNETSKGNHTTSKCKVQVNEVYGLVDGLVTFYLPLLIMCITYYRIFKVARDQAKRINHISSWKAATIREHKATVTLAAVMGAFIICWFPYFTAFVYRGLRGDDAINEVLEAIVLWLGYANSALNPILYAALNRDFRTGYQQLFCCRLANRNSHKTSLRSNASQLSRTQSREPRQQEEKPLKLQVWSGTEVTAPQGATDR
# Sequence of Mu-type opioid receptor (P35372 whole entry): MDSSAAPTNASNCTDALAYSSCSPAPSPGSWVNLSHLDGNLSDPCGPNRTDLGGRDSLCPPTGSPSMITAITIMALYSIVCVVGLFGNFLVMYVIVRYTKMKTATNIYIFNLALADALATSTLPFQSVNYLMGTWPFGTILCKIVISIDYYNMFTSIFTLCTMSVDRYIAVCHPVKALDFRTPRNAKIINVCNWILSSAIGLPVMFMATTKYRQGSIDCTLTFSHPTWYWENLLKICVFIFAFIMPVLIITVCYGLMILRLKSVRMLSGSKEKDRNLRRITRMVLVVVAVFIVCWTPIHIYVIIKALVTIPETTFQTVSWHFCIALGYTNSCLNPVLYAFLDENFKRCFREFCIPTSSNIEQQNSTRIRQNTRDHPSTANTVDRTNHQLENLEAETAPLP
# Sequence of Melanocortin receptor 3 (P41968 whole entry): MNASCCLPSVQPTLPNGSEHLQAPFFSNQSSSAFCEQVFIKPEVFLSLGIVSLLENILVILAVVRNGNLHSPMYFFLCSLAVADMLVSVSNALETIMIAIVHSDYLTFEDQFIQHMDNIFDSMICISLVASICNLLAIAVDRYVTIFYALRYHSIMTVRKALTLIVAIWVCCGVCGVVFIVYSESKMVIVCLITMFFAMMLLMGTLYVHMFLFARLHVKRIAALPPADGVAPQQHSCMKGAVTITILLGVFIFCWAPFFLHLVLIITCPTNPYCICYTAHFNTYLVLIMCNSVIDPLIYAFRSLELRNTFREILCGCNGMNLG
AC50 (Mu-type opioid receptor),AC50 (Histamine H2 receptor),AC50 [1],AC50 [3],AC50 (Adenosine receptor A3),AC50 [4],AC50 [5],AC50 (Melanocortin receptor 3),AC50 [6],SMILES,AC50 [7],further results
> 10 µM,> 30 µM,> 30 µM,> 30 µM,> 30 µM,> 30 µM,> 30 µM,> 30 µM,> 30 µM,CC1(C)S[C@@H]2[C@H](NC(=O)[C@H](N)c3ccc(O)cc3)C(=O)N2[C@H]1C(=O)O [AMOXICILLIN],–,AC50 [2]: > 30 µM
26 µM,> 10 µM,> 30 µM,16 µM,4.19 µM,> 30 µM,–,> 30 µM,2.65 µM,CCc1oc2ccccc2c1C(=O)c1cc(Br)c(O)c(Br)c1 [BENZBROMARONE],–,AC50 [2]: > 10 µM
> 30 µM,0.39 µM,> 30 µM,> 30 µM,> 30 µM,> 10 µM,> 10 µM,> 30 µM,–,Clc1cccc(Cl)c1N=C1NCCN1 [CLONIDINE],–,–
13 µM,> 30 µM,> 30 µM,> 30 µM,> 30 µM,> 30 µM,27 µM,> 30 µM,> 30 µM,COC(=O)[C@H](c1ccccc1Cl)N1CCc2sccc2C1 [CLOPIDOGREL],–,AC50 [2]: 14.9 µM
> 30 µM,–,> 30 µM,> 30 µM,> 30 µM,> 30 µM,> 30 µM,> 30 µM,0.048 µM,CC1(C)O[C@@H]2C[C@H]3[C@@H]4C[C@H](F)C5=CC(=O)C=C[C@]5(C)[C@H]4[C@@H](O)C[C@]3(C)[C@]2(C(=O)CO)O1 [FLUNISOLIDE],–,–
–,–,–,–,–,–,–,–,–,C=C1c2c(Cl)ccc(O)c2C(=O)C2=C(O)[C@]3(O)C(=O)C(C(N)=O)=C(O)[C@@H](N(C)C)[C@@H]3[C@@H](O)[C@H]12 [MECLOCYCLINE],> 30 µM,–
–,–,–,–,–,–,–,–,–,Cc1cc2c(OCC(O)CNC(C)C)cccc2[nH]1 (centres undefined) [MEPINDOLOL],> 30 µM,–
–,–,–,–,–,–,–,–,–,"CCCCCOc1ccc(-c2cc(-c3ccc(C(=O)N[C@H]4C[C@@H](O)[C@@H](O)NC(=O)[C@@H]5[C@@H](O)[C@@H](C)CN5C(=O)[C@H]([C@H](O)CC(N)=O)NC(=O)[C@H]([C@H](O)[C@@H](O)c5ccc(O)c(OS(=O)(=O)O)c5)NC(=O)[C@@H]5C[C@@H](O)CN5C(=O)[C@H]([C@@H](C)O)NC4=O)cc3)no2)cc1 [MICAFUNGIN] (X1-[Orn(4R-OH,5R-OH)]T[Hyp][hTyr(3S-OH,4S-OH,3'-OSO3H)][Gln(3R-OH)][Pro(3S-OH,4S-Me)]; lactam 1-C)",> 30 µM,–
–,–,–,–,–,–,–,–,–,CCOc1ccc2ccccc2c1C(=O)N[C@@H]1C(=O)N2[C@@H]1SC(C)(C)[C@@H]2C(=O)O [NAFCILLIN],> 30 µM,–
–,–,–,–,–,–,–,–,–,CCCCCCCCCCC[C@@H](C[C@@H]1OC(=O)[C@H]1CCCCCC)OC(=O)[C@H](CC(C)C)NC=O [ORLISTAT],> 30 µM,–
> 30 µM,> 10 µM,> 30 µM,> 30 µM,–,> 10 µM,> 10 µM,> 30 µM,> 30 µM,COc1ccnc(C[S+]([O-])c2nc3ccc(OC(F)F)cc3[nH]2)c1OC (centres undefined) [PANTOPRAZOLE],–,AC50 [2]: > 10 µM
–,–,–,–,–,–,–,–,–,O=C1[C@H]2CCCC[C@H]2C(=O)N1CCCCN1CCN(c2nsc3ccccc23)CC1 [PEROSPIRONE],> 30 µM,–
–,–,–,–,–,–,–,–,–,CN(C)CCC(c1ccccc1)c1ccccn1 (centres undefined) [PHENIRAMINE],> 30 µM,–
–,–,–,–,–,–,–,–,–,CC(C)COc1ccc(CNC(=O)N(Cc2ccc(F)cc2)C2CCN(C)CC2)cc1 [PIMAVANSERIN],29.9 µM,–
–,–,–,–,–,–,–,–,–,CC(C)(C)C(=O)NCCCC(=O)O [PIVAGABINE],> 30 µM,–
–,–,–,–,–,–,–,–,–,CC(C)[N+](C)(CCOC(=O)C1c2ccccc2Oc2ccccc21)C(C)C [PROPANTHELINE],> 30 µM,–
–,–,–,–,–,–,–,–,–,CN(C)C(=O)c1nc(CNC(=O)CN)n(-c2ccc(Cl)cc2C(=O)c2ccccc2Cl)n1 [RILMAZAFONE],> 30 µM,–
–,–,–,–,–,–,–,–,–,NC(=O)NS(=O)(=O)c1ccc(N)cc1 [SULFACARBAMIDE],> 30 µM,–
–,–,–,–,–,–,–,–,–,NCCc1ccc(O)cc1 [TYRAMINE],> 30 µM,–
–,–,–,–,–,–,–,–,–,CCCCCCCCCCCCCCCC(=O)OC/C=C(C)/C=C/C=C(C)/C=C/C1=C(C)CCCC1(C)C [VITAMIN A PALMITATE],> 30 µM,–

SMILES,AC50 (Mu-type opioid receptor),AC50 (Histamine H2 receptor),AC50 [1],AC50 [3],AC50 (Adenosine receptor A3),AC50 [4],AC50 [5],AC50 (Melanocortin receptor 3),AC50 [6],AC50 [7],further results
CN1C[C@H](C(=O)N[C@]2(C)O[C@@]3(O)[C@@H]4CCCN4C(=O)[C@H](Cc4ccccc4)N3C2=O)C[C@@H]2c3cccc4[nH]cc(c34)C[C@H]21 [DIHYDROERGOTAMINE],> 30 µM,0.62 µM,4.39 µM,–,> 30 µM,0.14 µM,> 10 µM,> 30 µM,–,–,AC50 [2]: > 10 µM
CC(=O)Oc1ccccc1C(=O)Nc1ncc([N+](=O)[O-])s1 [NITAZOXANIDE],–,> 30 µM,15 µM,5.6 µM,5 µM,> 30 µM,–,14 µM,8.6 µM,> 30 µM,AC50 [8]: > 30 µM; AC50 [2]: > 30 µM
CC[C@H]1OC(=O)[C@H](C)[C@@H](O[C@H]2C[C@@](C)(OC)[C@@H](O)[C@H](C)O2)[C@H](C)[C@@H](O[C@@H]2O[C@H](C)C[C@H](N(C)C)[C@H]2O)[C@](C)(O)C[C@@H](C)/C(=N\OCOCCOC)[C@H](C)[C@@H](O)[C@]1(C)O [ROXITHROMYCIN],> 30 µM,–,> 30 µM,> 30 µM,> 30 µM,> 30 µM,> 30 µM,> 30 µM,> 30 µM,–,–
Cn1c(=O)c2[nH]cnc2n(C)c1=O [THEOPHYLLINE],> 30 µM,> 10 µM,> 30 µM,> 30 µM,–,> 10 µM,> 10 µM,> 30 µM,> 30 µM,–,AC50 [2]: > 10 µM
